From US20230105108A1, “COMPOUNDS FOR THE TREATMENT OF BACTERIAL INFECTIONS AND POTENTIATION OF ANTIBIOTICS” (GEORGIA STATE UNIVERSITY RESEARCH FOUNDATION, INC., priority 2019, published 2023)
“Also recorded” adds a separate entry of the source. Where a name gives a salt, the structure may show the parent alone. Read-outs that look alike come from different tables or passages of the source. Marks after values point to notes of the source that are not given here.

Tests used:
[1] = test system: E. coli (ATCC 25922); assay: MIC determination, sensitization fold and FIC index on E. coli; assay type: cell-based; details: for MIC: Escherichia coli
Outline: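 MICs read by OD600 as >90% growth inhibition after two-fold rifampicin dilutions, 5×10^5 CFU/ml E. coli, 24 h, 37 °C, shaken, cation-adjusted Mueller Hinton II broth.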

[2] = test system: B. subtilis; assay: MIC determination and sensitization fold on B. subtilis; assay type: cell-based; details: for Sensitization fold: erythromycin; for MIC: Bacillus subtilis
[3] = test system: HEK293 cells; assay: Cytotoxicity on mammalian cells (CCK-8), HEK293; assay type: cell-based; details: for CC50: HEK293 cell line, 24 h; for IC50: Homo sapiens
Outline: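 Cells seeded a day ahead to ~80% confluency, exposed to varied compound concentrations for 24 h at 37° C, 5% CO2. CCK-8 added for a further 2 h and OD 450 nm read; viability expressed as percent of untreated control.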

[4] = test system: E. coli (lipid A part of LPS); assay: Dansyl-PMBN displacement assay; assay type: binding; details: E. coli with 10 μM Dansyl-PMBN; sensitizer 0 to 200 μM
Method: Panel (C) depicts a Dansyl-PMBN displacement assay. […] The fluorescent intensity of 10 μM Dansyl-PMBN in HEPES buffer was recorded as baseline F0. Fluorescent intensity/%=(F1−Fx)/(F1−F0). […] All results are triplicates.
Dansyl-PMBN displacement assay. Dansyl-PMBN was synthesized according to literature procedure. Dansyl-PMBN was dissolved in H2O to make 500 μM stock. Bacterial sensitizers were dissolved in ethanol to make 10 mM stock solutions. […] The E. coli stock was centrifuged at 3000 g for 10 min, washed with HEPES buffer (pH=7.2) and then centrifuged again to obtain bacteria pallet. The pallet was then gently resuspended in HEPES buffer to obtain a E. coli suspension with OD600 about 0.3. The experiment was performed on 96-well plates. Each well was supplied with 100 μl coli suspension with 10 μM Dansyl-PMBN, then to each well, different concentrations of bacterial sensitizers were added to achieve a final concentration ranging from 0 to 200 μM.
Mg^2+ can bridge between adjacent lipid A and enhance the membrane integrity. […] This phenomenon was also observed on MD-100. The culture medium for E. coli is Muller Hinton Broth (Cation adjusted), which already has at least 0.5 mM Mg^2+, so the “zero concentration point of Mg^2+” in FIG. 4 represents the amount of exogenous Mg^2+, not the total Mg^2+ in the culture medium. […] A fluorescent conjugate of a polymyxin-B derivative (Dansyl-PMBN, Scheme 3), which would show increased fluorescent intensity after binding to the lipid A part of LPS, was used to further probe this issue. In the presence of another component that can also binding to lipid A, Dansyl-PMBN would be replaced, leading to decreased fluorescent intensity.

[5] = test system: K. pneumoniae (43816); assay: MIC, sensitization fold and FIC index on K. pneumoniae; assay type: cell-based; details: Klebsiella pneumoniae; K. pneumoniae; read-out: MIC of MD-124
[6] = test system: E. coli; assay: Bacterial resistance frequency study; assay type: cell-based
Method: Bacterial resistance frequency study: E. coli was grown overnight in Mueller Hinton II cation-adjusted broth medium and concentrated to ˜5×10^9 CFUs/ml in Mueller Hinton II cation-adjusted broth. […] Then the plates were incubated at 37° C. for 48 h. Then the colonies formed on the plate were recorded and resistant frequency was calculated.

[7] = test system: E. coli; assay: Ex vivo skin burn infection model, wild-type E. coli; details: human skin burn, hypromellose gel, 24 hours; 4‰ (w/w) novobiocin, 1.5‰ MD-124
Method: To achieve topical application, compounds were formulated as hypromellose gel. […] After that, skin was loaded with hypromellose gel with different antibiotics and cultured at 37° C. for 24 hours. After 24 hours incubation, the skin sample was homogenized and the supernatants were serially diluted and plated on agar plates, from which bacterial counts on the skin was calculated. […] 1‰ polymyxin B hypromellose gel was used as positive control.

[8] = 10 μM compound, rifampicin as the antibiotic (Table 6)
[9] = E. coli, rifampicin, compound at 10 μM

**Q.** What does the source list for Cc1cc(COc2ccc(C(=N)N)cc2)cc(COc2ccc(C(=N)N)cc2)c1 [MD-100, 4,4′-(((5-methyl-1,3-phenylene)bis(methylene))bis(oxy))dibenzimidamide dihydrochloride]?
**A.** Sensitization fold [1, 8]: 8 fold; Sensitization fold ([1]; E. coli, rifampicin, 10 μg/ml bacterial sensitizer): 32^a fold; Sensitization fold [1, 9]: 8-fold at 10 μM; Sensitization fold ([1]; E. coli, rifampicin, compound at 25 μM): 32-fold at 25 μM; MIC ([1]; ATCC25922, 24 h): 100 µM; Sensitization fold ([1]; wild-type E. coli towards erythromycin, 10 μg/ml MD-100): 32 fold; growth density compared with the control (no treatment) group ([2]; B. subtilis, 5.5 μg/ml alone, no antibiotic): 80%; Sensitization fold ([2]; B. subtilis, compound at 6 μM): 8 fold at 6 μM.; Sensitization fold ([2]; B. subtilis, compound at 12 μM): 32-fold at 12 μM;; MIC ([2]; 24 h, B. subtilis, compound alone, read-out: MIC): 50 µM; MIC ([2]; wild type B. subtilis, read-out: MIC of DB2560): 50 µg/mL; CC50 [3]: 100 µM; IC50 ([3]; HEK293): 100 µM; displacement of Dansyl-PMBN (fluorescent intensity) [4]: able to displace Dansyl-PMBN although not as much as MD-124

**Q.** For N=C(N)c1ccc(COc2cc(OCc3ccc(C(=N)N)cc3)cc(C(F)(F)F)c2)cc1 [MD-124, 4,4′-(((5-(trifluoromethyl)-1,3-phenylene)bis(oxy))bis(methylene)) dibenzimidamide dihydrochloride], which Sensitization fold [1, 8] is on record?
**A.** 512 fold

**Q.** What about the “Sensitization fold (checkerboard assay)” value ([1]; E. coli toward rifampicin, ~10 μg/ml MD-124) of the same molecule?
**A.** over 16,000 fold

**Q.** What about the “effect on bacterial growth (OD600 at different time points)” value ([1]; E. coli, 5 μg/ml compound alone, no antibiotic, dihydrochloride) of the same molecule?
**A.** no bacterial the growth inhibition effect; also recorded: no effect on bacterial growth

**Q.** And the Sensitization fold ([1]; E. coli, rifampicin, 5 μg/ml bacterial sensitizer)?
**A.** 512 fold

**Q.** What about the Sensitization fold [1, 9] of the same molecule?
**A.** 512-fold at 10 μM

**Q.** What about the MIC ([1]; ATCC25922, 24 h, E. coli, compound alone, read-out: MIC) of the same molecule?
**A.** 100 µM

**Q.** What about the MIC ([1]; ATCC25922, E. coli, read-out: MIC of MD-124 itself) of the same molecule?
**A.** 50 µg/mL

**Q.** And the Sensitization fold ([1]; wild type E. coli towards rifampin, 3 μg/ml MD-124)?
**A.** 16 fold

**Q.** What about the Sensitization fold ([1]; wild-type E. coli towards clarithromycin, 5 μg/ml sensitizer) of the same molecule?
**A.** 256 fold

**Q.** And the CC50 [3]?
**A.** 100 µM

**Q.** What about the IC50 ([3]; HEK293 cells (Table 6), read-out: IC50) of the same molecule?
**A.** 100 µM

**Q.** What about the MIC [5] of the same molecule?
**A.** 25 µg/mL

**Q.** And the “resistant frequency towards MD-124” value ([6]; 10 μg/ml MD-124, 2.7×10^10 CFUs tested)?
**A.** < 3.7×10^−11

**Q.** What about the “lower resistance frequency towards MD-124/antibiotic combination than the antibiotic itself” value ([6]; 10 μg/ml MD-124, antibiotic 2 to 7-fold of MIC) of the same molecule?
**A.** 2 to 3 orders of magnitude

**Q.** And the “displacement of Dansyl-PMBN (fluorescent intensity)” value [4]?
**A.** steadily decreased in a concentration dependent fashion

**Q.** And the “E. coli growth inhibition / bacterial load vs vehicle group” value [7]?
**A.** neither 4‰ (w/w) novobiocin nor 1.5‰ MD-124 themselves achieved significant E. coli growth inhibition
